Earlier results as cited in patent US20090317464A1, “METHODS AND COMPOSITIONS FOR PRODUCING ANTI-ANDROGENIC EFFECTS” (PANACEA BIOTEC LTD., priority 2006, published 2009).

SMILES: CC(O)(CS(=O)(=O)c1ccc(F)cc1)C(=O)Nc1ccc(C#N)c(C(F)(F)F)c1 (stereo not drawn) [Bicalutamide, 4-cyano-3-trifluoromethyl-N-(3-p-fluorophenylsulphony 1-2-hydroxy-2-methylpropionyl) aniline]
- steady state concentration (Css) versus dose (daily administration to patients, above 300 mg, studied at 450 and 600 mg dose): no further increase in Css is observed
- half life (in vivo): approximately 5.8 days
- time to peak plasma concentration (in vivo): about 31 hours
